For 6 molecules, Decomposition point, solubility in tetrahydrofuran and solubility in diethylether results are on record in patent US9260397B2, “Salts comprising aryl-alkyl-substituted imidazolium and triazolium cations and the use thereof” (TECHNISCHE UNIVERSITAET DRESDEN, priority 2008, dated 2016).

Series [1] is described as follows: Thermal stability (decomposition point). The format is physicochemical.
Series [2] in a line: Solubility in ether or THF. The format is physicochemical. The protocol: To 80 mg 1-mesityl-3-tetradecyl imidazolium tetrafluoroborate (Example 97) 4 ml diethylether or 2 ml tetrahydrofuran are added.

In the case of “1-butyl-3-mesitylimidazolium bis(trifluoromethylsulfone)imide [Example 70]”, the Decomposition point in series [1] stood at 440 °C.
In turn, “1-heptyl-3-mesitylimidazolium bis(trifluoromethylsulfone)imide [Example 73]” gave a Decomposition point in series [1] of 440 °C.
Same read-out and setting: the value for “1-hexyl-3-mesitylimidazolium bis(trifluoromethylsulfone)imide [Example 72]” was 440 °C; that for “1-mesityl-3-pentylimidazolium bis(trifluoromethylsulfone)imide [Example 71]” was 440 °C; that for “1-mesityl-3-propylimidazolium bis(trifluoromethylsulfone)imide [Example 69]” was 440 °C.
Take `CCCCCCCCCCCCCC[n+]1ccn(-c2c(C)cc(C)cc2C)c1.F[B-](F)(F)F` [1-mesityl-3-tetradecyl imidazolium tetrafluoroborate]: the solubility in tetrahydrofuran entry in series [2] (80 mg in 2 ml tetrahydrofuran) is “dissolved easily”. In addition, the solubility in diethylether result in series [2] (80 mg in 4 ml diethylether) is “not dissolved”.
